This is an account of results in patent US20250382298A1, “NITROGEN-CONTAINING COMPOUND AND USE THEREOF” (SUZHOU GENHOUSE BIO CO., LTD., priority 2022, published 2025).

In one data set the test system is OVCAR3 cells. The experiment in a line: Detection of OVCAR3 cell proliferation activity by CTG method. Format: cell-based. The note with it: CellTiter-Glo, 7 days. The method, boiled down: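 OVCAR3 cells (2000/well) were exposed for 7 days to compound at 10 μM to 0.026 nM, 5-fold steps, in duplicate. Viability was read as CellTiter-Glo luminescence. A plate read on the day of compound addition served as the Max value for IC50 derivation.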

Data set [1] in a line: Pharmacokinetic test in mice. The note with it: BALB/c mice; for AUC / Cmax / half-life: mouse, plasma; for half-life: read-out: t½ (converted). It is filed as in vivo. The method, boiled down: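 BALB/c mice (9 per route) received single IV or intragastric doses, with orbital blood taken at 0.25–24 h into K2-EDTA. Plasma levels were measured by LC-MS/MS. Parameters came from non-compartmental analysis using the linear-log trapezoidal method.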

The nature of data set [2]: Stability test in human liver microsomes. It is filed as in vitro ADME, humans. As to conditions: human liver microsomes 0.5 mg/mL, 1.0 μM substrate; for CLint scaled at 1 μM / half-life at 1 μM: pH 7.4; for CLint scaled at 1 μM: read-out: HLM 0.5 CLint(liver); for half-life at 1 μM: read-out: HLM 0.5 T½. The procedure: The phase I metabolic stability of the compounds in liver microsomes of CD-1 mice, Sprague-Dawley rats, beagle dogs, cynomolgus monkeys, and humans was assessed.
The animal and human liver microsomes used in the test system were purchased from Xenotech, Corning, or other qualified suppliers and stored in a freezer at a temperature below −60° C. prior to use.
The test samples and control compounds were separately incubated with animal and human liver microsomes at 37±1° C. for a period of incubation time up to 60 min. The samples were removed at the indicated time points, and the reaction was stopped with acetonitrile or another organic solvent containing an internal standard. After centrifugation, the resulting supernatants were assayed by the liquid chromatography-tandem mass spectrometry (LC-MS/MS) method.
73.21 g of dipotassium hydrogen phosphate trihydrate and 10.78 g of potassium dihydrogen phosphate were dissolved in 4000 mL of ultrapure water. The solution was adjusted to pH 7.40±0.10 with 10% phosphoric acid or 1 M potassium hydroxide to make a final concentration of 100 mM.
The test sample powder was prepared into a stock solution at a certain concentration with DMSO or another organic solvent, which was then further diluted with a suitable organic solvent.
Microsomes of each species were diluted into a 2× working solution with a 100 mM potassium phosphate buffer. The final concentration of the microsomes in the reaction system was 0.5 mg/mL.
An appropriate amount of nicotinamide adenine dinucleotide phosphate (NADP) and isocitric acid (ISO) powder was weighed out, dissolved in a magnesium chloride solution, and shaken and mixed well. An appropriate amount of isocitrate dehydrogenase (IDH) was added, and the mixture was mixed well by gently turning upside down. The final concentrations in the reaction system were: 1 mM NADP, 1 mM magnesium chloride, 6 mM ISO, and 1 unit/mL IDH.
The stop solution was prepared with acetonitrile or another organic solvent containing an internal standard (tolbutamide or another suitable compound). The prepared stop solution was stored in a freezer at 2-8° C.
Incubation was performed in a 96-well plate. Eight incubation plates were prepared and designated T0, T5, T15, T30, T45, T60, Blank60, and NCF60, respectively. The first 6 plates corresponded to reaction time points of […], respectively. No test sample or control compound was added to the Blank60 plate, and samples were taken after 60 min of incubation. In the NCF60 plate, incubation was performed for 60 min using the potassium phosphate buffer instead of the NADPH regeneration system solution. Three replicates were made for samples in all conditions.
The microsomes and the test sample or control compound were mixed, and then the incubation plates Blank60, T5, T15, T30, T45, and T60 except for TO and NCF60 were placed in a 37° C. water bath for pre-incubation for about 10 min. In the incubation plate T0, a stop solution was first added, followed by addition of the NADPH regeneration system working solution, and 98 μL of the potassium phosphate buffer was added to each sample well of the incubation plate NCF60 to initiate the reaction. After the pre-incubation of the incubation plates Blank60, T5, T15, T30, T45, and T60 was completed, 98 μL of the NADPH regeneration system working solution was added to each sample well to initiate the reaction. The reaction temperature was 37±1° C., the final volume of the reaction was 200 μL, and the reaction system included 0.5 mg/mL microsomes, 1.0 μM substrate, 1 mM NADP, 6 mM ISO, and 1 unit/ml IDH.
At 5 min, 15 min, […], 45 min, and 60 min, a cold stop solution containing an internal standard was added to the reaction plate to stop the reaction.
All the reaction plates after the reaction was stopped were shaken well and centrifuged at 3220×g at 4° C. for 20 min. After the supernatant was diluted at a certain ratio, LC-MS/MS analysis was performed. […]

Where two headings read alike, the source gives them in different places. A value given as a limit tells only on which side of the number the result lay.

As for `O=C(Nc1cc2cc[nH]c2c(N2CCC(F)(F)CC2)n1)c1ccc(NS(=O)(=O)CCO)cc1N1CCC2(CC1)CC2` [Compound 22], the IC50 (as a rule, the concentration needed to halve the response being measured) in the data set with OVCAR3 cells (Homo sapiens, OVCAR-3, 168 h) stood at 0.0112 µM. In addition, the F in data set [1] (PO @30mpk) was found to be 218%. Also, in data set [1] (30 mg/kg, PO @30mpk), the AUC (commonly the area under the concentration-time curve, a measure of exposure) is 79.8 µM·h; the Cmax – broadly, the maximum level reached in the sampled fluid or tissue – is 14.6 µM; the half-life is 10 h.
In the case of `O=C(Nc1cn2c(F)cnc2c(N2CCC(F)(F)CC2)n1)c1ccc(NS(=O)(=O)CCO)cc1N1CCC2(CC1)CC2` [Compound 34], in data set [2], the CLint scaled at 1 μM came to 1.9 mL/min/kg and the half-life at 1 μM is 15.3 h. The same compound registered a F in data set [1] (PO @5mpk) of 257%. In data set [1] (PO @30mpk), this compound registered an F of 147%. Further, in data set [1] (5 mg/kg, PO @5mpk), the AUC is 70.1 µM·h, the Cmax is 6.39 µM and the half-life is 3.7 h. Further, in data set [1] (30 mg/kg, PO @30mpk), the AUC was determined as 220 µM·h, the Cmax came out at 15.2 µM and the half-life was 9.6 h.
On to `O=C(Nc1cn2ccnc2c(N2CCC(F)(F)CC2)n1)c1ccc(NS(=O)(=O)CCO)cc1N1CC2CCC(C2)C1` [Compound 17], for which, in the data set with OVCAR3 cells (Homo sapiens, OVCAR-3, 168 h), the IC50 worked out at 0.0063 µM. Further, the F in data set [1] (PO @5mpk) was 116%. In addition, in data set [1] (5 mg/kg, PO @5mpk), the AUC turned out to be 13.3 µM·h, the highest level (Cmax) was 2.69 µM and the half-life is 3.3 h.
As for `O=C(Nc1cc2ccsc2c(N2CCC(F)(F)CC2)n1)c1ccc(NS(=O)(=O)CCO)cc1N1CCC2(CC1)CC2` [Compound 15], the IC50 in the data set with OVCAR3 cells (Homo sapiens, OVCAR-3, 168 h) was found to be 0.024 µM. Further, in data set [2], the CLint scaled at 1 μM was less than 8.6 mL/min/kg and the half-life at 1 μM was more than 2.42 h. For the same compound, the F in data set [1] (PO @5mpk) came to 79%. Moreover, in data set [1] (5 mg/kg, PO @5mpk), the AUC was 17.8 µM·h, the Cmax stood at 1.77 µM and the half-life was 3.4 h.
Turning to `CS(=O)(=O)Nc1ccc(C(=O)Nc2cn3ccnc3c(N3CCC(F)(F)CC3)n2)c(N2CC3CCC(C3)C2)c1` [Compound 19], in data set [2], the CLint scaled at 1 μM stood at 11.6 mL/min/kg and the half-life at 1 μM was 1.79 h. For the same compound, in data set [1] (PO @5mpk), the F was 101%. Also, the F in data set [1] (PO @30mpk) was 92%. Also, in data set [1] (5 mg/kg, PO @5mpk), the AUC was 58.3 µM·h, the maximum concentration (Cmax) was 3.92 µM and the half-life is 14.9 h. Moreover, in data set [1] (30 mg/kg, PO @30mpk), the AUC stood at 320 µM·h, the highest level (Cmax) was 15.3 µM and the half-life was 16.5 h.
On to `Cc1cc(NC(=O)c2ccc(NS(=O)(=O)CCO)cc2N2CC3CCC(C3)C2)nc(N2CCC(F)(F)CC2)n1` [Compound 3], for which the IC50 with OVCAR3 cells (Homo sapiens, OVCAR-3, 168 h) was 0.085 µM. Besides, the F in data set [1] (PO @5mpk) was 87%. In data set [1] (5 mg/kg, PO @5mpk), the AUC was 74.8 µM·h, the highest level (Cmax) was 4.25 µM and the half-life was 44.5 h.
In the data set with OVCAR3 cells (Homo sapiens, OVCAR-3, 168 h), `O=C(Nc1cc2c(c(N3CCC(F)(F)CC3)n1)COC2)c1ccc(NS(=O)(=O)CCO)cc1N1CCC2(CC1)CC2` [Compound 14] registered an IC50 of 0.0056 µM. Besides, in data set [2], the CLint scaled at 1 μM amounted to 22.3 mL/min/kg and the half-life at 1 μM was 0.933 h.
`O=C(Nc1cn2ncnc2c(N2CCC(F)(F)CC2)n1)c1ccc(NS(=O)(=O)CCO)cc1N1CCC2(CC1)CC2` [Compound 23] showed an IC50 with OVCAR3 cells (Homo sapiens, OVCAR-3, 168 h) of 0.0064 µM. For the same compound, in data set [2], the CLint scaled at 1 μM is less than 8.6 mL/min/kg and the half-life at 1 μM is more than 2.42 h.
In the data set on OVCAR3 cells (Homo sapiens, OVCAR-3, 168 h), `O=C(Nc1cc2ccccc2c(N2CCC(F)(F)CC2)n1)c1ccc(NS(=O)(=O)CCO)cc1N1CCC2(CC1)CC2` [Compound 6] had an IC50 of 0.118 µM. In addition, in data set [2], the CLint scaled at 1 μM is less than 8.6 mL/min/kg and the half-life at 1 μM is more than 2.42 h. In data set [1] (PO @5mpk), this compound had an F of 44%. Further, in data set [1] (5 mg/kg, PO @5mpk), the AUC stood at 13.5 µM·h, the Cmax came to 1.55 µM and the half-life is 4.7 h.
In the case of `O=C(Nc1cc2cccnc2c(N2CCC(F)(F)CC2)n1)c1ccc(NS(=O)(=O)CCO)cc1N1CCC2(CC1)CC2` [Compound 21], in data set [2], the CLint scaled at 1 μM was less than 8.6 mL/min/kg and the half-life at 1 μM was more than 2.42 h. In addition, the F in data set [1] (PO @5mpk) is 107%. For the same compound, the F in data set [1] (PO @30mpk) came to 61%. Moreover, in data set [1] (5 mg/kg, PO @5mpk), the AUC came to 60.9 µM·h, the highest level (Cmax) was 4.17 µM and the half-life is 4 h. In addition, in data set [1] (30 mg/kg, PO @30mpk), the AUC is 207 µM·h, the highest concentration (Cmax) is 15.3 µM and the half-life was 5.4 h.
In the case of `CS(=O)(=O)Nc1ccc(C(=O)Nc2cc3cc[nH]c3c(N3CCC(F)(F)CC3)n2)c(N2CCC3(CC2)CC3)c1` [Compound 47], in data set [2], the CLint scaled at 1 μM amounted to 14.3 mL/min/kg and the half-life at 1 μM turned out to be 2.02 h.
In the data set with OVCAR3 cells (Homo sapiens, OVCAR-3, 168 h), `CS(=O)(=O)Nc1ccc(C(=O)Nc2cn3ccnc3c(N3CCC(F)(F)CC3)n2)c(N2CCC3(CC2)CC3)c1` [Compound 10] had an IC50 of 0.016 µM. In data set [2], the CLint scaled at 1 μM was less than 8.6 mL/min/kg and the half-life at 1 μM is more than 2.42 h.
Consider `O=C(Nc1cn2ccnc2c(N2CCC(F)(F)CC2)n1)c1ccc(NS(=O)(=O)CCO)cc1N1CCC2(CC1)CC2` [Compound 8], for which the IC50 with OVCAR3 cells (Homo sapiens, OVCAR-3, 168 h) is 0.0058 µM. Moreover, in data set [2], the CLint scaled at 1 μM is less than 8.6 mL/min/kg and the half-life at 1 μM is more than 2.42 h. The compound also came in with a F in data set [1] (PO @5mpk) of 97%. Moreover, in data set [1] (5 mg/kg, PO @5mpk), the AUC came out at 6.87 µM·h, the peak level (Cmax) was 1.61 µM and the half-life is 1.2 h.
Consider `O=C(Nc1cn2cnnc2c(N2CCC(F)(F)CC2)n1)c1ccc(NS(=O)(=O)CCO)cc1N1CCC2(CC1)CC2` [Compound 24], for which half-maximal inhibition in the data set on OVCAR3 cells (IC50) required 0.0178 µM. In addition, in data set [2], the “HLM 0.5 CLint(liver)” value was 9.4 mL/min/kg and the “HLM 0.5 T½” value is 2.22 h.
